≈ marks a conversion by molar mass, not a printed value.
What was measured:
Rat Femur = test: Immobilization Dependent Bone Loss in the Rat Femur (ovariectomized rats, unilateral sciatic neurotomy); assay type: in vivo; conditions: 20 mg/kg, i.p., 5×/week for 4 weeks
Description: This assay was performed according to the procedure described by Kharode Y.P., Kowal D., O'Rourke S., and Hayward M., "Effect of Time and Pharmacologic Intervention on Bone Mineralization," J. Bone Min. Res. 2, Supp.1. (1987).
Bone mass was determined in the contralateral femora from ovariectomized rats which had been subjected to unilateral sciatic nerve severance. After sciatic neurotomy, the rats were treated with test compound for 2 to 4 weeks. The rats were euthanized, the femora were excised, debrided of soft tissue, and then dehydrated. After drying, the mass of each pair of femora was determined by weighing. The % change in bone mass is calculated using the formula: [formula]

Rat Limb Bone = test: 45Ca Release from Rat Limb Bone (inhibition of bone resorption); assay type: cell-based, rat (Sprague-Dawley CD); conditions: for minimal effective concentration: concentration required to inhibit bone resorption, from regression analysis, read-out: MIC, Inhibition of Bone Resorption (45Ca release)
Description: Timed pregnant Sprague-Dawley CD rats (Charles River) are administered 100 uCi^45 CaCl2 (NEN calcium-45 NEZ-013) in 100 μl of 0.9% saline, subcutaneously, on day 18 of gestation. The rats are sacrificed the following day by asphyxiation. […] The modified BGJb media is obtained without salts glucose or bicarbonate and is supplemented before use with 0.1 mM MgCl2, 1.25 mM CaCl2, 5.3 mM KCl, 0.7 mM MgSO4, 130 mM NaCl, 1.0 mM NaH2 PO4, 1 g/1 glucose, 50 mg/1 Na acetate and 100 U/ml penicillin G. The medium is sterilized by passage through a […] filter (Nalge). Under a dissecting microscope, the bones are gently cleaned of adherent tissue and the cartilagenous ends removed. Step (2): Incubation and Drug Treatment The midshafts are placed, individually, on 3×3 mm squares of filter paper (Gelman […] filters; […] pore size) which rest on stainless steel screens in wells of 24-well culture plates containing 0.5 ml of preincubation medium. The preincubation medium is brought to 37 deg. C. prior to transfer of bones. The preincubation medium consists of the modified BGJb medium (with salts and glucose as above), pH 7.3, containing 29 mM NaHCO3. After incubation for 18-24 hours at 37° C. in 5% CO2, the bones are transferred on their screen/filter paper supports to new plates containing, in a total volume of 0.5 ml/well at 37° C., the test compound diluted in preincubation medium supplemented with 15% heat inactivated horse serum (Gibco No. 230-6050), pH 7.3, with or without a bone resorption stimulating agent (parathyroid hormone [PTH]). For compounds that require nonaqueous solvents, dilutions are made from the appropriate stock solution with medium. In these instances, basal and bone resorption stimulated controls exposed to an equivalent concentration of the vehicle are included. An additional group of bones that have been subjected to boiling for 1 hour are used to establish background, non cell mediated, exchange of ^45 Ca. The right ulna and radius from each fetus are used. Both bones are subjected to the same treatment and each treatment group consists of bones from 4 or more fetuses. Treatments are randomly assigned using a preclinical statistics program (PS-ALLOC). After a 48 hour incubation at 37° C. in 5% CO2, the bones are removed from the medium and extracted in 0.5 ml of 0.1N HCl for 1 or more days. Duplicate 150 μl aliquots of the incubation medium and the bone extract are analyzed for ^45 Ca radioactivity in 5 ml of liquid scintillation cocktail. The percentage of bone ^45 Ca released into the medium is determined as follows: [formula] Results are normally expressed as the ratio of the percent ^45 Ca release of the experimental group verses the appropriate vehicle control. […] A regression analysis is calculated for dose response and the concentration of test compound required to inhibit bone resorption (^45 Ca release) is reported (Table II).

[1] = cited from earlier work
[2] = Rattus norvegicus, 48 hour incubation at 37° C.

Which “% Change in Bone Mass” value (Rat Femur) does the source give for `O=C1C=C(Oc2ccc(-c3ccccc3)cc2)C(O)O1` (stereo not drawn) [Example 1, 4-([1,1'-Biphenyl]-4-yloxy)-5-hydroxy-2(5H)-furanone] here?
Its value is 4.8 ± 0.6%.

And the minimal effective concentration (Rat Limb Bone; [2])?
The minimal effective concentration was 10 µg/mL.

For `CCCCCCCCc1ccc(OC2=CC(=O)OC2O)cc1` (stereo not drawn) [Example 3, 4-(4-Octylphenoxy)-5-hydroxy-2(5H)-furanone], which minimal effective concentration (Rat Limb Bone; [2]) is on record?
The minimal effective concentration was 10 µg/mL.

For `O=C1C=C(Oc2ccc(C3CCCC3)cc2)C(O)O1` (stereo not drawn) [Example 4, 4-(4-Cyclopentylphenoxy)-5-hydroxy-2(5H)-furanone], which minimal effective concentration (Rat Limb Bone; [2]) is on record?
The minimal effective concentration was 1 µg/mL.

For `O=C1C=C(Oc2ccc(C(F)(F)F)cc2)C(O)O1` (stereo not drawn) [Example 5, 4-(4-Trifluoromethylphenoxy)-5-hydroxy-2(5H)-furanone], which IC50 (Rat Limb Bone; Rattus norvegicus, 48 hour incubation at 37° C., printed in the MIC (μg/mL) column) is on record?
The IC50 was 3.5 µg/mL (≈ 13.5 µM).

With `O=C1C=C(Oc2ccc(Sc3ccccc3)cc2)C(O)O1` (stereo not drawn) [Example 7, 4-[4-thiophenyl-1-phenoxy]-5-hydroxy-2(5H)-furanone] as the molecule, how does the minimal effective concentration (Rat Limb Bone; [2]) read?
Its minimal effective concentration is 10 µg/mL.

What does the source list for `[F-].[Na+]` [sodium fluoride]?
bone growth quality ([1]; in vivo): irregular; fracture incidence ([1]; in vivo): does not appear to be significantly lowered; mitogenic activity for osteoblasts ([1]; in vivo): mitogenic for osteoblasts; bone density increase ([1]; may result in increase up to 8-10% a year): 8-10 % a year

With Estrogen as the molecule, how does the side effects ([1]; in vivo) read?
The side effects was “increased risk of certain types of cancers”.

B1: PTH: bone resorption stimulating agent (parathyroid hormone [PTH]) (protein, UniProt P01270 32-115, looked up)
Parathyroid hormone: SVSEIQLMHNLGKHLNSMERVEWLRKKLQDVHNFVALGAPLAPRDAGSQRPRKKEDNVLVESHEKSLGEADKADVNVLTKAKSQ
For B1, which “ratio of the percent 45Ca release vs vehicle control (basal = 1.00)” value (Rat Limb Bone; PTH 10^-7 M, bone resorption agent, 'commonly') is on record?
Its value is 1.3-2.0.

Source: US5336687A, “Inhibition of bone loss by 4-aryloxy-5-hydroxy-2(5H)-furanones” (American Home Products Corporation, priority 1993, dated 1994)
